Reference: patent US9006257B2, “Bicyclic compounds as mPGES-1 inhibitors” (Glenmark Pharmaceuticals S.A., priority 2012, dated 2015)
pIC50: −log10 of the molar value.

Molecular target: T1, Recombinant human mPGES-1 (Homo sapiens, UniProt O14684)
T1 construct: made in house; host or cells: CHO cells
T1 sequence (O14684 1-152): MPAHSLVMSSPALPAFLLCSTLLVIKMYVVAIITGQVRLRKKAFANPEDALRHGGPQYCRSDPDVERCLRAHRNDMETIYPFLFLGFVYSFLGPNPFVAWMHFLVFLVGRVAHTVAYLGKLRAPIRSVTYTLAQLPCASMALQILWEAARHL
Assay: In-vitro mPGES-1 inhibitor screening (inhibition of PGE2 formation from PGH2, HTRF detection)
Assay type: biochemical
Conditions: for inhibition at 1 µM: 1 μM test compound, read-out: Percentage inhibition at 1 μM; for inhibition at 1 µM / inhibition at 10 µM: crude microsomal fraction, 15 μM PGH2; for inhibition at 10 µM: 10 μM test compound, read-out: Percentage inhibition at 10 μM; for pIC50: class symbol, concentration response curve
Method in brief: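 Recombinant human mPGES-1 from CHO microsomes (40-60 μg/mL protein) preincubated 10 min with compound in 0.1 M potassium phosphate, 2 mM EDTA, 2.5 mM GSH, 0.5% DMSO; 15 μM PGH2 reacted 1 min, stopped with stannous chloride. PGE2 by HTRF; IC50 by nonlinear regression of % inhibition.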

inhibition at 1 µM [%]	inhibition at 10 µM [%]	pIC50	SMILES
99.7	98.5	> 7.30	CC(C)C(=O)NCc1cnc(C(F)F)c(C(=O)Nc2cccc3c(Oc4ccc(F)c(C(F)(F)F)c4)ccnc23)c1 [Example-80, 2-(Difluoromethyl)-N-(4-(4-fluoro-3-(trifluoromethyl)phenoxy)quinolin-8-yl)-5-(isobutyramidomethyl)nicotinamide]
93.6	98.3	> 7.30	CC(C)C(=O)NCc1cnc(C(F)F)c(C(=O)Nc2cccc3c(NC(C)(C)C)ncnc23)c1 [Example-75, N-(4-(tert-Butylamino)quinazolin-8-yl)-2-(difluoromethyl)-5-(isobutyramidomethyl)nicotinamide]
95.8	97.2	> 7.30	CC(C)(C)C(=O)NCc1ccc(Cl)c(C(=O)Nc2cccc3c(Nc4cccc(C(F)(F)F)c4)nccc23)n1 [Example-2, 3-Chloro-6-(pivalamidomethyl)-N-(1-((3-(trifluoromethyl)phenyl)amino)isoquinolin-5-yl)picolinamide]
100	99.1	> 7.30	CC(C)(C)Nc1ncnc2c(NC(=O)c3c(Cl)ccc(CNC(=O)C(C)(C)CF)c3F)cccc12 [Example-79, N-(4-(tert-Butylamino)quinazolin-8-yl)-6-chloro-2-fluoro-3-((3-fluoro-2,2-dimethylpropanamido)methyl)benzamide]
99.6	98.3	> 7.30	CC(C)(C)C(=O)NCc1ccc(Cl)c(C(=O)Nc2cccc3c(Nc4ccc(C(F)(F)F)cc4)nccc23)c1 [Example-45, 2-Chloro-5-(pivalamidomethyl)-N-(1-((4-(trifluoromethyl)phenyl)amino)isoquinolin-5-yl)benzamide]
100	97.3	> 7.30	CC(C)(C)Nc1ncnc2c(NC(=O)c3cc(CNC(=O)C(C)(C)C)c(F)cc3Cl)cccc12 [Example-71, N-(4-(tert-Butylamino)quinazolin-8-yl)-2-chloro-4-fluoro-5-(pivalamidomethyl)benzamide]
93	95.9	7.00 to 7.30	CC(C)(C)C(=O)NCc1ccc(Cl)c(C(=O)Nc2cccc3c(Oc4cccc(C(F)(F)F)c4)nccc23)n1 [Example-6, 3-Chloro-6-(pivalamidomethyl)-N-(1-(3-(trifluoromethyl)phenoxy)isoquinolin-5-yl)picolinamide]
97.4	99.1	> 7.30	CC(C)(C)C(=O)NCc1ccc(Cl)c(C(=O)Nc2cccc3c(Nc4ccc(C(F)(F)F)nc4)ncnc23)c1F [Example-30, 6-Chloro-2-fluoro-3-(pivalamidomethyl)-N-(4-((6-(trifluoromethyl)pyridin-3-yl)amino)quinazolin-8-yl)benzamide]
98.2	97.3	> 7.30	Cc1nc(NC2CCC(C)(C)CC2)c2cccc(NC(=O)c3c(Cl)ccc(CNC(=O)C(C)(C)C)c3F)c2n1 [Example-54, 6-Chloro-N-(4-((4,4-dimethylcyclohexyl)amino)-2-methylquinazolin-8-yl)-2-fluoro-3-(pivalamidomethyl)benzamide]
99.7	98.9	> 7.30	CC(C)(C)C(=O)NCc1ccc(Cl)c(C(=O)Nc2cccc3c(Oc4cccc(C(F)(F)F)c4)ncnc23)c1 [Example-10, 2-Chloro-5-(pivalamidomethyl)-N-(4-(3-(trifluoromethyl)phenoxy)quinazolin-8-yl)benzamide]
88.3	97.2	< 7.00	CN(C)c1ncnc2c(NC(=O)c3c(Cl)ccc(CNC(=O)C(C)(C)C)c3F)cccc12 [Example-61, 6-Chloro-N-(4-(dimethylamino)quinazolin-8-yl)-2-fluoro-3-(pivalamidomethyl)benzamide]
